# In US20220397573A1, “Biomolecular Detection Device” (Hoffmann-La Roche Inc., priority 2019, published 2022):
# Test system: off-target adenosine receptors
# Test: Cross-sensitivity test: stimulation of off-target receptors in HEK293 cells on the biomolecular detection device
# Type: cell-based
# Details: 5 μM NECA, FIG. 6a
# Method: SNAP-β2AR cells were grown to 60-80% confluency in T25 culture flasks, washed twice with warm phosphate-buffered saline (PBS), incubated with 1× Versene for 5 min and resuspended in cell culture medium. In order to decrease baseline signal contributions from non-functional cellular debris, the cells were centrifuged at 50 rpm for 1 min and resuspended in culture media two times sequentially. The cells were seeded to reach confluency on the waveguide in an incubation chamber containing 500 μl cell culture media. Cells were only seeded when viability exceeded 90%, as determined by a Countess automated cell counter (Invitrogen). Except for the real-time establishment of the transmembrane nanopattern, seeded cells were kept in a CO2 incubator at 37° C. for 2 h to allow cells adherence to the sensor chip (and covalent interaction of the SNAP-tag on the β2AR with the SNAP-tag substrate on the chip). The incubation chamber containing the cells was then washed twice with warm HBSS buffer (supplemented with 20 mM HEPES, pH 7.4) adjusted for DMSO and transferred to a modified F3000 ZeptoReader (Zeptosens) which was kept at 35° C. […] For all assays, the signal was monitored for 7 min (baseline measurement) before careful substitution of the buffer with buffer containing the β2AR ligand and monitored for another 21 min thereafter. […]
smiles,measurement,value
CCNC(=O)[C@H]1O[C@@H](n2cnc3c(N)ncnc32)[C@H](O)[C@@H]1O [NECA],signal (mass increase at the receptor relative to the initial mass) upon off-target stimulation,no significant signal change
